Measured values taken from BindingDB's records for doi:10.1021/acs.jmedchem.8b01644 (University of Montpellier, 2019).
Positions of bridges follow the written chain, without caps; N, C: chain ends. Non-standard residues stand in square brackets, D forms with d. Residues, ends and D or L forms follow the SMILES beside them. Nle = CCCC[C@H](N)C(=O)O

Tests used:
[1] = Antagonist activity at human SNAP-tagged GHSR expressed in HEK293T cells assessed as reduction in ghrelin-induced calcium production at 1 uM by measuring ghrelin EC50 after 15 mins by Fluo 4-AM dye-based fluorescence assay (Rvb = 0.41 +/- […])
[2] = Antagonist activity at SNAP-tagged human GHSR expressed in HEK293T cells assessed as reduction in ghrelin-induced inositol phosphate production at 1 uM by measuring ghrelin EC50 after 30 mins by HTRF assay (Rvb = 0.36 +/- 0.01 nM)
[3] = Antagonist activity at SNAP-tagged human GHSR expressed in HEK293T cells assessed as reduction in ghrelin-induced inositol phosphate production at 1 uM by measuring ghrelin EC50 after 30 mins by HTRF assay (Rvb = 0.40 +/- 0.05 nM)
[4] = Antagonist activity at human SNAP-tagged GHSR expressed in HEK293T cells assessed as reduction in ghrelin-induced calcium production at 1 uM by measuring ghrelin EC50 after 15 mins by Fluo 4-AM dye-based fluorescence assay (Rvb = 0.34 +/- 0.12 nM)

EC50 [1] [nM]	EC50 [2] [nM]	EC50 [3] [nM]	EC50 [4] [nM]	SMILES
28	17	–	–	CC[C@H](C)[C@@H]1NC(=O)[C@@H]2CSSC[C@@H](C(=O)N[C@@H](CO)C(=O)N[C@@H](CC(C)C)C(=O)N[C@@H](CO)C(=O)N[C@H](C(=O)N[C@@H](C)C(=O)N[C@@H](CCC(N)=O)C(=O)N[C@@H](CCC(=O)O)C(=O)O)C(C)C)NC(=O)[C@H](CCCNC(=N)N)NC(=O)[C@H](CCCNC(=N)N)NC(=O)[C@H](CCCCN)NC(=O)[C@H](CCCNC(=N)N)NC(=O)[C@H](CSSC[C@H](NC(=O)[C@H](CO)NC(=O)[C@H](C)NC(=O)CNC(=O)[C@@H](NC(=O)[C@@H]3CCCN3C(=O)[C@H](CCCNC(=N)N)NC(=O)[C@H](CC(C)C)NC(=O)[C@H](CO)NC(=O)[C@@H](NC(=O)CNC(=O)[C@H](CCCNC(=N)N)NC(=O)[C@H](Cc3c[nH]c4ccccc34)NC(=O)[C@H](Cc3ccccc3)NC(=O)[C@@H]3CCCN3C(=O)[C@@H](NC(=O)[C@@H](N)CCSC)[C@@H](C)O)C(C)C)[C@@H](C)CC)C(=O)N[C@@H](CCCNC(=N)N)C(=O)N[C@@H](CC(=O)O)C(=O)N[C@@H](CC(=O)O)C(=O)N[C@@H](CO)C(=O)N[C@@H](CCC(=O)O)C(=O)N2)NC(=O)[C@H](CC(C)C)NC(=O)[C@H](CCCNC(=N)N)NC(=O)[C@H]([C@@H](C)O)NC1=O (H-MTPFWRGVSLRPIGASCRDDSECITRLCRKRRCSLSVAQE-OH; disulfide 17-28, 23-33)
–	–	2.5	18	CCCC[C@H](N)C(=O)N[C@H](C(=O)N1CCC[C@H]1C(=O)N[C@@H](Cc1ccccc1)C(=O)N[C@@H](Cc1c[nH]c2ccccc12)C(=O)N[C@@H](CCCNC(=N)N)C(=O)NCC(=O)N[C@H](C(=O)N[C@@H](CO)C(=O)N[C@@H](CC(C)C)C(=O)N[C@@H](CCCNC(=N)N)C(=O)N1CCC[C@H]1C(=O)N[C@H](C(=O)NCC(=O)O)[C@@H](C)CC)C(C)C)[C@@H](C)O (H-[Nle]TPFWRGVSLRPIG-OH)
